The subject of one assay is KAI1 promoter. Kind of assay: KAI1 promoter luciferase reporter assay in transfected Caco2 cells. Conditions: Homo sapiens, Caco-2, 16 h, 1 μM compound, 16 hours, transfected Caco2 cells, luciferase activity relative to DMSO control (=1); read-out: Relative KAI promoter activity. Type of assay: cell-based, human. (A reporter such as luciferase makes a cellular process visible.)

The test system of assay [1] is invasion of colorectal cancer cells. Kind of assay: In vivo relative invation (invasion; EV and KITENIN controls, no method described). The note with it: relative to EV (=1); KIT = KITENIN.

Consider `CCCCN(C)Cc1cccc(C(=O)NCC(=O)c2ccccc2)c1` [Example 246, 3-((butyl (methyl)amino)methyl)-N-(2-oxo-2-phenylethyl)benzamide], for which, in the assay on KAI1 promoter, the fold induction at 1 µM turned out to be 1.88. Besides, the “In vivo relative invation” value in assay [1] is given as 1.148.

In the case of `O=C(CNC(=O)c1ccccc1OC1CCN(C(=O)c2ccc(Br)cc2)CC1)c1ccccc1` [Example 181, 2-((1-(4-bromobenzoyl)piperidin-4-yl)oxy)-N-(2-oxo-2-phenylethyl)benzamide], the fold induction at 1 µM with KAI1 promoter is 1.06. Moreover, the “In vivo relative invation” value in assay [1] is given as 1.194.

For the molecule `CCCCC(=O)NCC(=O)c1ccc(N(C)C)cc1` [Example 103, N-(2-(4-(dimethylamino)phenyl)-2-oxoethyl)pentanamide], in the assay with KAI1 promoter, the fold induction at 1 µM amounted to 1.7. Moreover, the “In vivo relative invation” value in assay [1] came to 1.172.

Turning to `COc1ccc(S(=O)(=O)NCC(=O)c2ccc(N(C)C)cc2)cc1` [Example 111, N-(2-(4-(dimethylamino)phenyl)-2-oxoethyl)-4-methoxybenzenesulfonamide], the fold induction at 1 µM with KAI1 promoter amounted to 1.44. Besides, the “In vivo relative invation” value in assay [1] is given as 1.065.

For the molecule `O=C(COc1ccccc1C(=O)NCC(=O)c1ccccc1)NCc1ccccc1` [Example 204, 2-(2-(benzylamino)-2-oxoethoxy)-N-(2-oxo-2-phenylethyl)benzamide], in the assay with KAI1 promoter, the fold induction at 1 µM stood at 1.3. For the same molecule, the “In vivo relative invation” value in assay [1] is 1.095.

Consider `O=C(CNC(=O)C1CCC1)c1ccc(N2CCOCC2)cc1` [Example 144, N-(2-(4-morpholinophenyl)-2-oxoethyl)cyclobutanecarboxamide], for which, in the assay with KAI1 promoter, the fold induction at 1 µM was determined as 1.08. Further, the “In vivo relative invation” value in assay [1] is listed as 1.284.

In the case of `COCC(=O)NCC(=O)c1ccccc1` [Example 23, 2-methoxy-N-(2-oxo-2-phenylethyl) acetamide], in the assay with KAI1 promoter, the fold induction at 1 µM amounted to 1. Moreover, in assay [1], the “In vivo relative invation” value is 1.104.

For the molecule `CCCNC(=O)COc1ccccc1C(=O)NCC(=O)c1ccccc1` [Example 228], the fold induction at 1 µM in the assay with KAI1 promoter was 0.982. The “In vivo relative invation” value in assay [1] was found to be 1.278.

Regarding `C=CCN(CC=C)Cc1ccc(C(=O)NCC(=O)c2ccccc2)cc1` [Example 265, 4-((diallylamino)methyl)-N-(2-oxo-2-phenylethyl)benzamide], the fold induction at 1 µM in the assay with KAI1 promoter was determined as 1.91. Moreover, in assay [1], the “In vivo relative invation” value worked out at 1.343.

Regarding `COc1ccccc1C(=O)N1CCC(Oc2ccccc2C(=O)NCC(=O)c2ccccc2)CC1` [Example 162, 2-((1-(2-methoxybenzoyl)piperidin-4-yl)oxy)-N-(2-oxo-2-phenylethyl)benzamide], in the assay on KAI1 promoter, the fold induction at 1 µM was 0.99. In assay [1], the “In vivo relative invation” value is reported as 1.043.

In the case of `O=C(CNC(=O)c1ccc(CN2CCN(c3ncccn3)CC2)cc1)c1ccccc1` [Example 258, N-(2-oxo-2-phenylethyl)-4-((4-(pyrimidin-2-yl)piperazin-1-yl)methyl)benzamide], the fold induction at 1 µM with KAI1 promoter is 2.31. Besides, the “In vivo relative invation” value in assay [1] worked out at 1.223.

With `O=C(CNC(=O)c1ccc(F)cc1Cl)c1ccccc1` [Example 33, 2-chloro-4-fluoro-N-(2-oxo-2-phenylethyl)benzamide], the fold induction at 1 µM in the assay with KAI1 promoter amounted to 1.78. Also, the “In vivo relative invation” value in assay [1] is reported as 0.7513.

In the case of `C#CN(C)Cc1ccc(C(=O)NCC(=O)c2ccccc2)cc1` [Example 275, 4-((ethynyl(methyl)amino)methyl)-N-(2-oxo-2-phenylethyl)benzamide], the fold induction at 1 µM in the assay with KAI1 promoter stood at 6.85. Also, the “In vivo relative invation” value in assay [1] turned out to be 1.146.

On to `COc1ccccc1N1CCN(Cc2cccc(C(=O)NCC(=O)c3ccccc3)c2)CC1` [Example 236, 3-((4-(2-methoxyphenyl)piperazin-1-yl)methyl)-N-(2-oxo-2-phenylethyl)benzamide], for which the fold induction at 1 µM with KAI1 promoter came out at 1.3. Besides, in assay [1], the “In vivo relative invation” value is 1.112.

For the molecule `COc1ccc(C(=O)NCC(=O)c2ccc(N3CCOCC3)cc2)cc1` [Example 140, 4-methoxy-N-(2-(4-morpholinophenyl)-2-oxoethyl)benzamide], the fold induction at 1 µM in the assay on KAI1 promoter turned out to be 1.15. The “In vivo relative invation” value in assay [1] is recorded as 1.553.

For the molecule `O=C(CNS(=O)(=O)c1cccc([N+](=O)[O-])c1)c1ccc(Cl)cc1` [Example 63, N-(2-(4-chlorophenyl)-2-oxoethyl)-3-nitrobenzenesulfonamide], in the assay on KAI1 promoter, the fold induction at 1 µM was determined as 0.7. In addition, the “In vivo relative invation” value in assay [1] came to 1.102.

As to `O=C(CNC(=O)C1CC1)c1ccc(Cl)cc1` [Example 56, N-(2-(4-chlorophenyl)-2-oxoethyl)cyclopropanecarboxamide], the fold induction at 1 µM in the assay on KAI1 promoter came to 0.92. The “In vivo relative invation” value in assay [1] came out at 1.249.

In the case of `CCN(Cc1cccc(C(=O)NCC(=O)c2ccccc2)c1)c1ccccc1` [Example 239, 3-((ethyl(phenyl)amino)methyl)-N-(2-oxo-2-phenylethyl)benzamide], the fold induction at 1 µM in the assay with KAI1 promoter was 1.08. For the same molecule, the “In vivo relative invation” value in assay [1] stood at 1.135.

As to `C/C=C/C(=O)NCC(=O)c1cccnc1` [Example 134, (E)-N-(2-oxo-2-(pyridin-3-yl)ethyl)but-2-enamide], the fold induction at 1 µM in the assay with KAI1 promoter was determined as 1.09. In addition, the “In vivo relative invation” value in assay [1] is on record as 1.297.

On to `COc1cccc(C(=O)CNC(=O)c2cccc(CN3CCOCC3)c2)c1` [Example 293, N-(2-(3-methoxyphenyl)-2-oxoethyl)-3-(morpholinomethyl)benzamide], for which, in the assay on KAI1 promoter, the fold induction at 1 µM came to 1.25. The “In vivo relative invation” value in assay [1] is recorded as 1.174.

Turning to `O=C(CNC(=O)c1ccccc1OC1CCN(C(=O)c2ccc(OC(F)(F)F)cc2)CC1)c1ccccc1` [Example 199, N-(2-oxo-2-phenylethyl)-2-((1-(4-(trifluoromethoxy)benzoyl)piperidin-4-yl)oxy)benzamide], in the assay on KAI1 promoter, the fold induction at 1 µM is 0.97. The “In vivo relative invation” value in assay [1] amounted to 1.105.

On to `O=C(CNC(=O)c1ccccc1OC1CCN(C(=O)C2CCC2)CC1)c1ccccc1` [Example 167, 2-((1-(cyclobutanecarbonyl)piperidin-4-yl)oxy)-N-(2-oxo-2-phenylethyl)benzamide], for which the fold induction at 1 µM with KAI1 promoter was 1.04. In addition, the “In vivo relative invation” value in assay [1] is 1.159.

For `O=C(CNC(=O)c1ccc(F)cc1Cl)c1ccc(Cl)cc1` [Example 76, 2-chloro-N-(2-(4-chlorophenyl)-2-oxoethyl)-4-fluorobenzamide], the fold induction at 1 µM in the assay with KAI1 promoter is 0.83. In addition, the “In vivo relative invation” value in assay [1] is reported as 1.12.

Regarding `CN(C)c1ccc(C(=O)CNC(=O)c2cccs2)cc1` [Example 101, N-(2-(4-(dimethylamino)phenyl)-2-oxoethyl)thiophene-2-carboxamide], the fold induction at 1 µM in the assay with KAI1 promoter was determined as 3.04. Further, the “In vivo relative invation” value in assay [1] is 0.8815.

`O=C(CNS(=O)(=O)c1ccccc1)c1ccc(N2CCOCC2)cc1` [Example 148, N-(2-(4-morpholinophenyl)-2-oxoethyl)benzenesulfonamide]: in the assay with KAI1 promoter, the fold induction at 1 µM worked out at 1.44. Also, the “In vivo relative invation” value in assay [1] is reported as 1.844.

In the case of `CN(C)c1ccc(C(=O)CNS(=O)(=O)c2ccc(Cl)cc2)cc1` [Example 108, 4-chloro-N-(2-(4-(dimethylamino)phenyl)-2-oxoethyl)benzenesulfonamide], the fold induction at 1 µM with KAI1 promoter was found to be 1.36. Besides, in assay [1], the “In vivo relative invation” value amounted to 0.989.

For `COc1ccccc1N1CCN(Cc2ccc(C(=O)NCC(=O)c3ccccc3)cc2)CC1` [Example 259, 4-((4-(2-methoxyphenyl)piperazin-1-yl)methyl)-N-(2-oxo-2-phenylethyl)benzamide], the fold induction at 1 µM with KAI1 promoter amounted to 1.23. For the same molecule, the “In vivo relative invation” value in assay [1] amounted to 1.251.

Turning to `COc1cccc(C(=O)CNS(=O)(=O)c2ccccc2)c1` [Example 129, N-(2-(3-methoxyphenyl)-2-oxoethyl)benzenesulfonamide], the fold induction at 1 µM in the assay on KAI1 promoter turned out to be 1.3. Moreover, in assay [1], the “In vivo relative invation” value came out at 1.298.

For `CCCCN(CC)Cc1cccc(C(=O)NCC(=O)c2cccc(OC)c2)c1` [Example 290, 3-((butyl (ethyl)amino)methyl)-N-(2-(3-methoxyphenyl)-2-oxoethyl)benzamide], the fold induction at 1 µM in the assay with KAI1 promoter was 1.23. In addition, the “In vivo relative invation” value in assay [1] came out at 0.9234.

On to `COc1cccc(C(=O)CNC(=O)c2cccc(CC3CCN(c4ccccc4F)CC3)c2)c1` [Example 281, 3-((1-(2-fluorophenyl)piperidin-4-yl)methyl)-N-(2-(3-methoxyphenyl)-2-oxoethyl)benzamide], for which the fold induction at 1 µM with KAI1 promoter was found to be 1.52. For the same molecule, the “In vivo relative invation” value in assay [1] turned out to be 1.236.

Turning to `O=C(CNS(=O)(=O)Cc1ccccc1)c1ccccc1` [Example 28, N-(2-oxo-2-phenylethyl)-1-phenylmethanesulfonamide], the fold induction at 1 µM in the assay on KAI1 promoter was 1.02. Further, in assay [1], the “In vivo relative invation” value was found to be 1.057.

For `O=C(CNC(=O)c1cccc(Cl)c1)c1ccc(Cl)cc1` [Example 47, 3-chloro-N-(2-(4-chlorophenyl)-2-oxoethyl)benzamide], in the assay on KAI1 promoter, the fold induction at 1 µM worked out at 0.76. Also, the “In vivo relative invation” value in assay [1] is reported as 0.9038.

As for `O=C(CNC(=O)c1ccccc1CN1CCN(c2ncccn2)CC1)c1ccccc1` [Example 300, N-(2-oxo-2-phenylethyl)-2-((4-(pyrimidin-2-yl)piperazin-1-yl)methyl)benzamide], the fold induction at 1 µM in the assay with KAI1 promoter stood at 1.91. For the same molecule, in assay [1], the “In vivo relative invation” value is reported as 0.9869.

Regarding `O=C(CNC(=O)c1ccccc1OC1CCN(C(=O)c2ccco2)CC1)c1ccccc1` [Example 155, 2-((1-(furan-2-carbonyl)piperidin-4-yl)oxy)-N-(2-oxo-2-phenylethyl)benzamide], the fold induction at 1 µM in the assay with KAI1 promoter worked out at 0.99. Also, the “In vivo relative invation” value in assay [1] was determined as 1.151.

Regarding `CN(C)c1ccc(C(=O)CNC(=O)c2ccc(F)cc2F)cc1` [Example 105, N-(2-(4-(dimethylamino)phenyl)-2-oxoethyl)-2,4ifluorobenzamide], the fold induction at 1 µM in the assay with KAI1 promoter was found to be 1.25. The “In vivo relative invation” value in assay [1] amounted to 1.079.

For the molecule `CN(C)c1ccc(C(=O)CNC(=O)c2ccc(Cl)cc2)cc1` [Example 88, 4-chloro-N-(2-(4-(dimethylamino)phenyl)-2-oxoethyl)benzamide], in the assay with KAI1 promoter, the fold induction at 1 µM was 1.35. Further, the “In vivo relative invation” value in assay [1] came out at 0.9216.
